{"source": "patent US6218378A", "about": "“Anti-tumor agents comprising pyridyl-substituted metal-diphosphine complex” (priority 1994, dated 2001)", "assay_type_in_all_cases": "cell-based, human", "key": {"HeLa": {"test_system": "HeLa", "assay": "cell survival after drug treatment ([methyl-3H]-thymidine)", "source_text": "(§1) In FIGS. 1-4 and Table 1, reference is made to the cell lines HeLa, HeLa-S1a, JAM, CI-80-13S and MM96.\n(§2) The origins of the human melanoma cell line MM96 has been described in Whitehead et al., 1973, Pigment Cell 1 383-389. The cell line JAM is described in Ward et al., 1987, Cancer Res. 47 2662-2667. The origin of the ovarian tumour line CI-80-13S has been described in Bertoncello et al., 1985, Aust. J. Exp. Biol. Med. Sci. 63 241-243. The origin of the cervical carcinoma cell line HeLa has been described in Maynard et al., 1986, Cancer Res. 46 5009-5093. The subclone HeLa-S1a was derived by stably transfecting HeLa with PAI-2 cDNA described in Schleuning et al., 1987, Mol. Cell. Biol. 7 4564-4567 in the sense orientation under the control of the cyto-megalovirus (CMV) promoter. The stably infected subclone was isolated following G418 selection and expression of the PAI-2 transgene characterised by immunoblot analysis and quantitated by ELISA. All of these cell lines have been used before for carrying out cell survival assays referred to in FIGS. 1-4. Cells were cultured at 37° in 5% CO2 /air in Roswell Park Memorial Institute medium 1640 containing 5% foetal calf serum, 100 μg/ml streptomycin, 100 IU/ml penicillin, 1 mM pyruvate, 50 μM nicotinamide and 3 mM HEPES.\n(§3) Cells were seeded in microtitre plates (lowest number for fastest growing cells: 1000 HeLa, 2000 MM96, […] CI-80-13S cells per 6 mm well in 100 μl), normally but not necessarily allowed to attach overnight, then 5 dilutions of the drug were added to duplicate wells. After an overnight incubation to equilibrate the pH, the lids were quickly taped around the edge to prevent evaporation. The plates were incubated for 5-7 days, until the controls were nearly confluent. Cell growth/morphology was scored at each dose visually (inverted microscope). The medium was then replaced by 50 μl fresh medium containing 2 u/Ci/ml [methyl-3H]-thymidine (5 Ci/mmol; Radiochemical Centre, Amersham, Bucks., U.K.) and incubated for 2-4 hr. The cells were washed with PBS (0.1 M NaCl, 50 mM phosphate, pH 7.2), detached with 100 μl of PBS containing 0.2 mg/ml trypsin and 10 mM EDTA, and washed onto a glass fibre GF/a filter mat with water using a cell harvester. Later, wells were checked under the microscope to ensure complete detachment and washout. Radioactivity was determined in an LKB Beta Plate counter and the results plotted as log % control cpm versus dose. The ID50 (dose required to give 50% survival) was interpolated from this survival curve."}, "CI-80-13S": {"test_system": "CI-80-13S", "assay": "cell survival after drug treatment ([methyl-3H]-thymidine)", "source_text": "as §1, §2, §3"}, "MM96": {"test_system": "MM96", "assay": "cell survival after drug treatment ([methyl-3H]-thymidine)", "source_text": "as §1, §2, §3"}, "HeLa-S1a": {"test_system": "HeLa-S1a", "assay": "cell survival after drug treatment ([methyl-3H]-thymidine)", "source_text": "as §1, §2, §3"}, "CH1-cisR": {"test_system": "CH1-cisR", "assay": "cytotoxicity assay, sulforhodamine B", "conditions": "96 hrs, mean ± SD or individual values when n<3", "protocol": "(§4) In Table 2, reference is made to cell lines 41M, 41M-cisR, SKOV-3, CH1 and CH1-cisR.\n(§5) J. Cancer 69 1-7. The characteristics of the cell line pairs CH1/CH1 cisR, 41M/41McisR and 41M/SKOV3 are described in Table 3.\n(§6) The cytotoxicity assay used sulforhodamine B which stains the basic amino acids. Cells (5000 or 2500 for SKOV-3) were seeded into 96 well microtitre plates (Linbro, Flow Laboratories Inc., USA) in 0.1 ml of medium. After an overnight incubation, the metal phosphine compounds were dissolved in 0.9% NaCl or ethanol and diluted with medium, were added at concentrations ranging from 0.005 to 50 μM to quadruplicate wells. After 96 hrs incubation, the medium was removed and cells were fixed in 0.2 ml of cold 10% (w/v) trichloroacetic acid (May & Baker Ltd., Dagenham, England) for 30 mins at 4° C. The plates were washed five times with tap water. Then 0.1 ml of 0.4% (w/v) sulforhodamine B (Sigma Chemical Co., St. Louis, USA) dissolved in 1% acetic acid (Ajax Chemicals, Australia) was added to the wells and left to stand at room temperature for 15 mins. The plates were then washed five times with 1% acetic acid and left to dry overnight. The next morning, 0.1 ml of 10 mM Tris buffer (Sigma Chemical Co., St. Louis, USA) was then added to each plate to solubilise the dye. Absorbance was read at a wavelength of 570 nm using a 96 well plate reader Dynatech MR 5000 plate reader. Absorbance of treatment cells was expressed as a percentage of positive (drug-free) controls. The results were plotted as percentage growth versus drug concentration."}, "CH1": {"test_system": "CH1", "assay": "cytotoxicity assay, sulforhodamine B", "conditions": "96 hrs, mean ± SD or individual values when n<3", "protocol": "as §4, §5, §6"}, "SKOV-3": {"test_system": "SKOV-3", "assay": "cytotoxicity assay, sulforhodamine B", "conditions": "96 hrs, mean ± SD or individual values when n<3", "protocol": "as §4, §5, §6"}, "41M": {"test_system": "41M", "assay": "cytotoxicity assay, sulforhodamine B", "conditions": "96 hrs, mean ± SD or individual values when n<3", "protocol": "as §4, §5, §6"}, "41M-cisR": {"test_system": "41M-cisR", "assay": "cytotoxicity assay, sulforhodamine B", "conditions": "96 hrs, mean ± SD or individual values when n<3", "protocol": "as §4, §5, §6"}}}
{"smiles": "[Cl-].c1cc([P+]2(c3ccncc3)CC[P+](c3ccncc3)(c3ccncc3)[Au-3]23[P+](c2ccncc2)(c2ccncc2)CC[P+]3(c2ccncc2)c2ccncc2)ccn1", "note": "[[Au(d4pype)2]Cl]", "values": [{"measurement": "cytotoxicity (FIGS. 1 and 2)", "setting": "HeLa; HeLa cervical carcinoma in vitro", "result": "inactive"}, {"measurement": "IC50", "setting": "HeLa; HeLa, mean ± SD or individual values when n<3, 5-7 days", "result": "> 10000", "unit": "nM"}, {"measurement": "cytotoxicity (FIGS. 1 and 2)", "setting": "CI-80-13S; CI-80-13S ovarian in vitro", "result": "selectively cytotoxic"}, {"measurement": "IC50", "setting": "CI-80-13S; CI-80-13S, mean ± SD or individual values when n<3, 5-7 days", "result": "320 ± 150", "unit": "nM"}, {"measurement": "IC50", "setting": "MM96; MM96L, mean ± SD or individual values when n<3, 5-7 days", "result": "> 10000", "unit": "nM"}, {"measurement": "cytotoxicity (FIGS. 1 and 2)", "setting": "MM96; MM96 melanoma in vitro", "result": "inactive"}, {"measurement": "cytotoxicity (FIGS. 1 and 2)", "setting": "HeLa-S1a; HeLa-S1a in vitro", "result": "selectively cytotoxic"}, {"measurement": "IC50", "setting": "HeLa-S1a; HeLa-S1a, mean ± SD or individual values when n<3, 5-7 days", "result": 300, "unit": "nM"}, {"measurement": "IC50", "setting": "CH1-cisR", "result": "600 ± 200", "unit": "nM"}, {"measurement": "IC50", "setting": "CH1", "result": "400 ± 100", "unit": "nM"}, {"measurement": "IC50", "setting": "SKOV-3", "result": "> 100000", "unit": "nM"}, {"measurement": "IC50", "setting": "41M", "result": "> 100000", "unit": "nM"}, {"measurement": "IC50", "setting": "41M-cisR", "result": "> 100000", "unit": "nM"}]}
